Laboratory results reported in patent US20080267948A1, “Croos-B Structure Binding Compounds” (priority 2005, published 2008).

T1: factor XII (Homo sapiens, UniProt P00748)
T1 sequence (P00748 20-615): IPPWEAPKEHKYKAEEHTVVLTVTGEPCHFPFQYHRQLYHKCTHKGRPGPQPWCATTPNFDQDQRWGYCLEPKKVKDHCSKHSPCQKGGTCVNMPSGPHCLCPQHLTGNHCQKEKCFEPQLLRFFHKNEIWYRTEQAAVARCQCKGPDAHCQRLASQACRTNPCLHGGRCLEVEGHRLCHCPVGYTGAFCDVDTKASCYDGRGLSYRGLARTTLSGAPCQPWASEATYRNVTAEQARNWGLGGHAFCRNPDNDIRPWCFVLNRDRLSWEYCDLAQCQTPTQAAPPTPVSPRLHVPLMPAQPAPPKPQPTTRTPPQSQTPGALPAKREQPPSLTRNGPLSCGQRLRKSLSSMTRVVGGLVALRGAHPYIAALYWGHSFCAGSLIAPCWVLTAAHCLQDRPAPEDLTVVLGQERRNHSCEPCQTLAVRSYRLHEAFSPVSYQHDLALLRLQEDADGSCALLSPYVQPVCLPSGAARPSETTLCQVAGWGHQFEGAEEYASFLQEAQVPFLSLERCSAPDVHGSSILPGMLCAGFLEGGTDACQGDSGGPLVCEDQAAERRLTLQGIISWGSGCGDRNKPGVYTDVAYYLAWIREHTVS


Assays:
[1] = target: T2, Hb-AGE (glucose-6-phosphate modified human haemoglobin) (Homo sapiens, UniProt P68871+P69905); assay: ELISA binding of tPA to immobilized Hb-AGE, compounds co-incubated with tPA; details: dye included in the tPA solution
T2 construct: purchased Sigma-Aldrich H7379
Procedure: The small compound library is depicted in Tables 4-5. […] Binding experiments were performed in single wells per compound, in a duplicate experiment. Binding data obtained with this duplicate experiment was averaged.
• 1. […] Coat buffer in control wells. • 2. wash three times with wash buffer • 3. Block all wells with 300 μl 0.5*recommended concentration Roche blocking reagent for 30 minutes at room temperature, with agitation • 4. wash twice • 5. […] Incubate for 30 minutes at room temperature, with agitation • 7. wash five times with TBS/0.1% Tween20 • 8. […] Incubate for 30 minutes at room temperature, with agitation • 10. wash five times with TBS/0.1% Tween20 • 11. Fill wells with 3000× diluted horse raddish peroxidase-labeled polyclonal rabbit anti-mouse antibody (RAMPO, DAKOCytomation) • 12. Incubate for 20 minutes at room temperature, with agitation • 13. Wash five times with TBS/0.1% Tween20 • 14. Wash twice with PBS • 15. Stain with 100 μl TMB, stop with 50 μl 10% H2SO4 • 16. Read absorbance at 450 nm

[2] = tested on: amyloid-β and glycated albumin; assay: ELISA binding of tPA to immobilized amyloid-β and glycated albumin with Congo red or ThT; details: concentration series of dye
Procedure: After 5 washes with wash buffer followed by two washes with PBS, binding of antibodies was assessed. […] Triplicates were averaged and standard deviations calculated.

[3] = target: T3, glycated haemoglobin (Hb-AGE) (Homo sapiens, UniProt P68871+P69905); assay: ELISA binding of IgIV to immobilized Hb-AGE and inhibition studies; details: 15 μg/ml IgIV, concentration series of competitor
T3 construct: purchased Sigma-Aldrich H7379
Procedure: Binding of IgIV was determined using an enzyme linked immunosorbent assay (ELISA) set-up. For this purpose 50 μl/well of potential ligands at indicated concentrations or coat buffer only for control and background measurement purposes, were coated overnight at 4° C., with motion, in 50 mM NaHCO3 pH 9.6. Glycated albumin and Hb (BSA-AGE and Hb-AGE), control BSA and control Hb were coated at 5 μg/ml. The BSA and Hb controls were prepared freshly by dissolving lyophilized proteins at 1 mg/ml in PBS upon resuspending by pipetting, followed by a 30′ period at the roller bank, at room temperature. The protein solutions were centrifuged for 10′ at 16,000*g and diluted in coat buffer. Coat controls were performed with anti-glycated protein antibody, anti-albumin antibody, anti-Hb antibody. The alkaline phosphatase-conjugated anti-human Ig antibodies were controlled by coating the IgIV's and overlaying them the secondary antibodies. After coating the plates were washed twice with 50 mM Tris-HCl pH 7.3, 150 mM NaCl, 0.1% v/v Tween20, and blocked with 175 μl/well Blocking reagent (Roche Diagnostics, Almere, The Netherlands; catalogue number 11112589001), for 1 h at room temperature, with motion. Plates were washed twice and incubated in triplicate with indicated antibodies dilution series, plasma dilution series or controls, including binding buffer only, in the absence or presence of putative inhibitors, in binding buffer; PBS/0.1% v/v Tween20, at 50 μl/well, for 1 h at room temperature, with constant motion. After four wash cycles, secondary antibodies were added to the wells, 50 μl/well, for 45′ at room temperature, with motion. RAMPO and SWARPO were used at 2000 times dilution, goat anti-human IgG antibodies were diluted 3000 times, goat anti-human IgM antibodies were diluted 1000 times. After 5 washes with wash buffer followed by two washes with PBS, binding of antibodies was assessed. […] After 5′ absorbance was read at 405 nm. […] After 5′ absorbance was read at 490 nm. […] Triplicates were averaged and standard deviations calculated. […]

amyloid γ-globulins = assay: Inhibition ELISA of monoclonal 7H2H2 binding to immobilized amyloid γ-globulins; set-up: species or system human
Procedure: When binding of a monoclonal antibody to an aggregate with amyloid-like properties was confirmed, the influence of Congo red on this interaction was tested as follows. Amyloid γ-globulins were coated onto a high-binding plate (Greiner Microlon, Bio-One GmbH, Frickenhausen, Germany), blocked with Roche blocking reagent, and overlayed with 10 times diluted hybridoma cell culture medium with a concentration series of Congo red. In addition, the inhibitory effect of compounds with cross-(structure conformation on binding of a monoclonal antibody to immobilized cross-β structure conformation comprising antigens was tested with an ELISA set-up. For this purpose, a limiting amount of antigen, i.e. 0.5 μg ml^−1 amyloid γ-globulins, was immobilized onto a Greiner high-binding plate. It was determined that 80 times diluted hybridoma cell culture supernatant contains an amount of antibody that results in less than maximal signal when used in ELISAs with immobilized proteins with cross-β structure conformation (not shown). Now, concentration series of freshly dissolved-, amyloid-, acid-denatured- and base-denatured γ-globulins at 0.1, 1, 10 and 100 μg ml^−1 was added to the 80 times diluted hybridoma cell culture supernatant, and used to overlay the immobilized amyloid γ-globulins. The amount of bound antibody was determined with RAMPO. […]

[4] = tested on: anti-β2GPI auto-antibodies from antiphospholipid syndrome patients; assay: Interference with binding of anti-β2GPI autoantibodies to immobilized β2GPI; set-up: species or system human; details: concentration series of β2GPI in solution
Procedure: β2GPI by recombinant β2GPI and not by plasma derived β2GPI When plasma derived β2GPI is coated onto hydrophilic ELISA plates, anti-β2GPI auto-antibodies isolated from plasma of antiphospholipid syndrome autoimmune patients can bind^18. To study the influence of coincubations of the coated β2GPI with the antibodies together with plasma β2GPI or recombinant β2GPI, concentration series of β2GPI were added to the patient antibodies. Subsequently, binding of the antibodies to coated β2GPI was determined.

tPA = tPA (Homo sapiens, UniProt P00750); assay: ELISA binding of β2GPI to immobilized tPA
Procedure: (§1) Binding of β2GPI was assessed with monoclonal antibody 2B2^17.

factor XII = target: T1, factor XII; assay: ELISA binding of β2GPI to immobilized factor XII; set-up: human factor XII from plasma (Calbiochem); purchased Calbiochem; host or cells: human plasma
Procedure: as §1

T2 sequence (P69905 2-142 limits assumed): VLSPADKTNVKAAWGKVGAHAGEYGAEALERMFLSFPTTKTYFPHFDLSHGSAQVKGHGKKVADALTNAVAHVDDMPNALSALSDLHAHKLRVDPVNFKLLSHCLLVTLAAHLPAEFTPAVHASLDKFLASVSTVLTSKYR
T2 sequence (P68871 2-147 limits assumed): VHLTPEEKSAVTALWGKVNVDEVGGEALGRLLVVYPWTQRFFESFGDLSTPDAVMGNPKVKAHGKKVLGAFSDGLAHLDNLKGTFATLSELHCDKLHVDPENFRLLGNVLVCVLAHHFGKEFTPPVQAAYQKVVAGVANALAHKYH
T3 sequence (P69905 2-142 limits assumed): as the sequence (P69905 2-142 limits assumed) above
T3 sequence (P68871 2-147 limits assumed): as the sequence (P68871 2-147 limits assumed) above
Chain of tPA (P00750 36-562): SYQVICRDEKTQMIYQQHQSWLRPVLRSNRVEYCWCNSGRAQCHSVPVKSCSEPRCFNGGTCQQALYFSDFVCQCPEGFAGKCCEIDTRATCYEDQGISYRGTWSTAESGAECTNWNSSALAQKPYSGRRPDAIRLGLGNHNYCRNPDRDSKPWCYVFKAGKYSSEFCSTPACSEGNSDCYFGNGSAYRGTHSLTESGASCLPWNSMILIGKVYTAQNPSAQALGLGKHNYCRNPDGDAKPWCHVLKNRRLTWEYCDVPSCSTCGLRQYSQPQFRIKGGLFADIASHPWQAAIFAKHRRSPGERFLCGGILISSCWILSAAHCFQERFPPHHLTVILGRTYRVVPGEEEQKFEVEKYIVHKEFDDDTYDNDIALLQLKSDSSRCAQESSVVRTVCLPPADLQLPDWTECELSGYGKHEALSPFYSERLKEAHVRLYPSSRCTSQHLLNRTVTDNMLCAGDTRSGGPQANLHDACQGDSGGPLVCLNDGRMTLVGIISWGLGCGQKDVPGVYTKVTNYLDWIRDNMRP

Row | Molecule | influence on binding of tPA to immobilized misfolded protein [1] | inhibition of tPA binding to immobilized amyloid-β and glycated albumin [2] | influence on binding of IgIV to immobilized Hb-AGE [3] | inhibition of 7H2H2 binding to amyloid γ-globulins (amyloid γ-globulins; 500 μM Congo red, diluted 7H2H2 cell culture medium) | Congo red concentrations that inhibit binding of 7H2H2 (amyloid γ-globulins; 7H2H2 from 10 times diluted culture medium) | inhibition of binding of anti-β2GPI auto-antibodies to immobilized β2GPI [4] | binding to tPA (tPA) | binding to factor XII (factor XII)
1 | Cc1ccc2c(c1)sc(-c1ccc(N(C)C)cc1)[n+]2C.[Cl-] [Thioflavin T] | promotes binding of tPA | not by ThT | enhance the binding of IgIV | – | – | – | – | –
2 | Nc1c(/N=N/c2ccc(-c3ccc(/N=N/c4cc(S(=O)(=O)O)c5ccccc5c4N)cc3)cc2)cc(S(=O)(=O)O)c2ccccc12 [Congo red] | inhibits binding of tPA | effectively inhibited | fully blocks IgIV binding | approximately 66% | higher than 5 μM | – | – | –
3 | plasma β2GPI: β2-glycoprotein I purified from fresh human plasma (protein, UniProt P02749 20-345, looked up) Beta-2-glycoprotein 1: GRTCPKPDDLPFSTVVPLKTFYEPGEEITYSCKPGYVSRGGMRKFICPLTGLWPINTLKCTPRVCPFAGILENGAVRYTTFEYPNTISFSCNTGFYLNGADSAKCTEEGKWSPELPVCAPIICPPPSIPTFATLRVYKPSAGNNSLYRDTAVFECLPQHAMFGNDTITCTTHGNWTKLPECREVKCPFPSRPDNGFVNYPAKPTLYYKDKATFGCHDGYSLDGPEEIECTKLGNWSAMPSCKASCKVPVKKATVVYQGERVKIQEKFKNGMLHGDKVSFFCKNKEKKCSYTEDAQCIDGTIEVPKCFKEHSSLAFWKTDASDVKPC | – | – | – | – | – | has a minor effect on antibody binding | not bind | not bind
